Measurements taken from patent EP0352248A1, “Nucleoside derivatives” (priority 1988, dated 1990).

How the values were obtained:
Assay type in all cases: cell-based
HIV (HTLV-IIIB) = assay: Effect on HIV in H9 cells (frequency of HIV antigen containing cells, immunofluorescence); conditions: Human immunodeficiency virus 1; H9 cells exposed to HIV (HTLV-IIIB), 6-7 days; read-out: Concentration (µM) for 50 % inhibition (IC₅₀) of human immuno deficiency virus multiplication in cell culture
Protocol: Test I Effect of compounds of the formula I on HIV in H9 cells
Materials and methods: HIV infection of H9 cells
H9 cells, 10⁵ cells per well on a 24 well plate, suspended in 2 ml RPMI-medium containing 10 % fetal calf serum, 100 µg/ml penicillin, 10 µg/ml streptomycin sulfate and 2 µg/ml polybrene are exposed to HIV (HTLV-IIIB) and different concentrations of the test compounds. The plates are incubated at 37°C in 5 % CO₂ for 6-7 days. The contents in each well is then homogenized with a pipette and transferred to a centrifuge tube. After centrifugation for 10 min at 1500 rpm the supernatant is removed and the cell pellet is analyzed by fixing in methanol on glass plates. Human HIV positive serum diluted 1:80 or 1:160 is added and incubated for 30 min at 37°C. The plate is then washed with phosphate-buffered saline (PBS) containing Ca²⁺ and Mg²⁺. Sheep anti-human conjugate (FITC) is added and after a new incubation the plate is again washed with PBS. Contrast straining is done with Evans blue and after drying the frequency of HIV antigen containing cells is determined in a microscope.

H9 cells = assay: Cellular toxicity, inhibition of cell multiplication, H9 cells; conditions: conc. 200 µM, cell number after 48 h
Protocol: (§1) Test II Cellular toxicity
H9 cells, 2x10⁷ cells per plate, are incubated in RPMI-1640 medium containing 10 % fetal calf serum, 70 mg/l penicillin, 100 mg/l streptomycin and 10 mM hepes, in absence or presence of test compounds. The number of cells per plate is determined after 48 h. Cells incubated in the absence of test compounds then underwent two cell division cycles.
F5000 cells, which are human embryo cells, 1x10⁵ cells per plate, are incubated in Eagle's minimal essential medium, supplemented with Earle's salts, non-essential amino acids, 10 % fetal calf serum, 10 mM hepes, 70 mg/l penicillin and 100 mg/l streptomycin, in absence or presence of test compounds. The number of cells per plate is determined after 48 h. Cells incubated in the absence of test compounds underwent one cell division cycle. […]

F5000 cells = assay: Cellular toxicity, inhibition of cell multiplication, F5000 cells; conditions: F5000 cells (human embryo cells), conc. 100 µM, cell number after 48 h
Protocol: as §1
F5000 cells, which are human embryo cells, 1x10⁵ cells per plate, are incubated in Eagle's minimal essential medium, supplemented with Earle's salts, non-essential amino acids, 10 % fetal calf serum, 10 mM hepes, 70 mg/l penicillin and 100 mg/l streptomycin, in absence or presence of test compounds. The number of cells per plate is determined after 48 h. Cells incubated in the absence of test compounds underwent one cell division cycle. The results are given as % inhibition of cell multiplication when the concentration of the compound is 100 µM or 250 µM.

In the case of `Nc1ccn(C2CC[C@H](CO)O2)c(=O)n1` (stereo partly drawn) [VSB 815, 1-(2,3-Dideoxy-alpha,beta-L-ribofuranosyl)-cytosine], the IC50 (HIV (HTLV-IIIB)) is reported as less than 1 µM, the “% Inhibition H9” value (H9 cells) is reported as 35 (200) % and the “% Inhibition F5000” value (F5000 cells) is reported as 55 (100) %.
